Test results taken from patent US11524934B2, “Phenylamine compounds” (PI INDUSTRIES LTD., priority 2017, dated 2022).

Key:
Septoria lycopersici = Septoria lycopersici (Leaf spot of tomato) in vitro test, radial growth on Potato Dextrose Agar; conditions: 168 h, read-out: control
Alternaria solani = Alternaria solani (early blight of tomato/potato) in vitro test, radial growth on Potato Dextrose Agar; conditions: 168 h, read-out: control
Pyricularia oryzae = test: microbe, parasite or virus in culture; assay type: cell-based; conditions: 168 h, read-out: control
Botrytis cinerea = Botrytis cinerea (Gray mold) in vitro test, radial growth on Potato Dextrose Agar; conditions: 168 h, read-out: control
Phakopsora pachyrhizi = Phakopsora pachyrhizi test in soybean (in vivo on plants), preventive activity; conditions: preventive spray on soybean plants, inoculated one day after treatment, disease severity rated vs untreated check
Protocol: Example 8 (In Vivo on Plants): Phakopsora pachyrhizi Test in Soybean
Compounds were dissolved in 2% DMSO/Acetone & then mixed with water to the calibrated spray volume of 50 ml and poured into the spray bottles for further applications.
To test the preventive activity of compounds, healthy young soybean plants raised in the greenhouse were sprayed with active compound preparation at the stated application rates inside the spray cabinets using hallowcone nozzles. One day after treatment, the plants were inoculated with spore suspension containing 2.1×10^6 Phakopsora pachyrhizi inoculum. The inoculated plants were then kept in greenhouse chamber at 25° C. temperature & 90% Relative Humidity for disease expression.
A visual assessment of compound's performance was carried out by rating the disease severity (0-100% scale) on treated plants on 3, 7, 10 & 15 days after application. Efficacy (% control) of the compounds was calculated by comparing the disease rating in the treatment with the one of the untreated control. The sprayed plants were also assessed for compound's plant compatibility by recording symptoms like necrosis, chlorosis & stunting.

Rhizoctonia solani = conditions: 168 h, read-out: control

Structure (SMILES)	inhibition of growth at 300 ppm (Septoria lycopersici) [%]	inhibition of growth at 300 ppm (Alternaria solani) [%]	inhibition of growth at 300 ppm (Pyricularia oryzae) [%]	inhibition of growth at 300 ppm (Botrytis cinerea) [%]	pest or weed control at 500 ppm (Phakopsora pachyrhizi) [%]	inhibition of growth at 300 ppm (Rhizoctonia solani) [%]
CCN(C)C=Nc1cc(C)c(C(=O)CSc2ccccc2)cc1C [Compound 1, N′-(2,5-dimethyl-4-(2-(phenylthio)acetyl)phenyl)-N-ethyl-N-methylformimidamide]	> 70	> 70	> 70	> 70	> 90	> 70
CCN(C)C=Nc1cc(C)c(C(=O)CSc2ccc(Cl)c(Cl)c2)cc1C [Compound 8, N′-(4-(2-((3,4-dichlorophenyl)thio)acetyl)-2,5-dimethylphenyl)-N-ethyl-N-methylformimidamide]	–	> 70	> 70	> 70	> 90	> 70
CCN(C)C=Nc1cc(C)c(C(=O)COc2ccc(OC)cc2)cc1C [Compound 10, N-ethyl-N′-(4-(2-(4-methoxyphenoxy)acetyl)-2,5-dimethylphenyl)-N-methylformimidamide]	> 70	> 70	> 70	–	> 90	> 70
CCN(C)C=Nc1cc(C)c(C(=O)COc2ccc(Cl)cc2)cc1C [Compound 16, N′-(4-(2-(4-chlorophenoxy)acetyl)-2,5-dimethylphenyl)-N-ethyl-N-methylformimidamide]	> 70	> 70	> 70	–	–	–
CCN(C)C=Nc1cc(C)c(C(=O)CSc2ncc(C(F)(F)F)cc2Cl)cc1C [Compound 18, N′-(4-(2-((3-chloro-5-(trifluoromethyl)pyridin-2-yl)thio)acetyl)-2,5-dimethylphenyl)-N-ethyl-N-methylformimidamide]	–	> 70	> 70	> 70	> 90	> 70
CCN(C)C=Nc1cc(C)c(C(=O)COc2cccc(C)c2)cc1Cl [Compound 26, N′-(2-chloro-5-methyl-4-(2-(m-tolyloxy)acetyl)phenyl)-N-ethyl-N-methylformimidamide]	–	> 70	–	–	> 90	–
CCN(C)C=Nc1cc(C)c(C(=O)CSc2ccccc2Br)cc1C [Compound 30, N′-(4-(2-((2-bromophenyl)thio)acetyl)-2,5-dimethylphenyl)-N-ethyl-N-methylformimidamide]	> 70	> 70	> 70	> 70	–	> 70
CCN(C)C=Nc1cc(C)c(C(=O)COc2ccccc2Br)cc1Cl [Compound 31, N′-(4-(2-(2-bromophenoxy)acetyl)-2-chloro-5-methylphenyl)-N-ethyl-N-methylformimidamide]	> 70	> 70	> 70	–	–	> 70
CCN(C)C=Nc1cc(C)c(C(=O)COc2ccc(F)cc2)cc1C [Compound 33, N-ethyl-N′-(4-(2-(4-fluorophenoxy)acetyl)-2,5-dimethylphenyl)-N-methylformimidamide]	> 70	> 70	> 70	–	–	> 70
CCN(C)C=Nc1cc(C)c(C(=O)COc2ccccc2Br)cc1C [Compound 34, N′-(4-(2-(2-bromophenoxy)acetyl)-2,5-dimethylphenyl)-N-ethyl-N-methylformimidamide]	> 70	> 70	> 70	–	–	> 70
CCN(C)C=Nc1cc(C)c(C(=O)CSc2ccc(Cl)cc2)cc1Cl [Compound 38, N′-(2-chloro-4-(2-((4-chlorophenyl)thio)acetyl)-5-methylphenyl)-N-ethyl-N-methylformimidamide]	–	–	–	–	> 90	–
CCN(C)C=Nc1cc(C)c(C(=O)CSc2ccccc2Br)cc1Cl [Compound 39, N′-(4-(2-((2-bromophenyl)thio)acetyl)-2-chloro-5-methylphenyl)-N-ethyl-N-methylformimidamide]	–	–	–	–	> 90	–
Cc1cc(C(=O)COc2cccc(Cl)c2)c(C)cc1N=CN1CCOCC1 [Compound 40, 2-(3-chlorophenoxy)-1-(2,5-dimethyl-4-((morpholinomethylene)amino)phenyl)ethan-1-one]	–	> 70	–	–	> 90	–
Cc1cc(C(=O)COc2cccc(Cl)c2)c(C)cc1N=CN1CCCCC1 [Compound 41, 2-(3-chlorophenoxy)-1-(2,5-dimethyl-4-((piperidin-1-ylmethylene)amino)phenyl)ethan-1-one]	–	> 70	–	–	> 90	> 70
Cc1cc(C(=O)COc2cccc(Cl)c2)c(C)cc1N=CN(C)C(C)C [Compound 42, N′-(4-(2-(3-chlorophenoxy)acetyl)-2,5-dimethylphenyl)-N-isopropyl-N-methylformimidamide]	> 70	> 70	> 70	–	> 90	> 70
C=CCN(C)C=Nc1cc(C)c(C(=O)COc2cccc(Cl)c2)cc1C [Compound 43, N-allyl-N′-(4-(2-(3-chlorophenoxy)acetyl)-2,5-dimethylphenyl)-N-methylformimidamide]	–	–	–	–	> 90	–
CCN(C)C=Nc1cc(C)c(C(=O)COc2ccccc2F)cc1Cl [Compound 44, N′-(2-chloro-4-(2-(2-fluorophenoxy)acetyl)-5-methylphenyl)-N-ethyl-N-methylformimidamide]	–	–	–	–	> 90	–
CCN(C)C=Nc1cc(C)c(C(=O)COc2ccc(F)cc2)cc1Cl [Compound 45, N′-(2-chloro-4-(2-(4-fluorophenoxy)acetyl)-5-methylphenyl)-N-ethyl-N-methylformimidamide]	–	–	–	–	> 90	–
Cc1cc(C(=O)COc2cccc(Cl)c2)c(C)cc1N=CNC#N [Compound 46, N′-(4-(2-(3-chlorophenoxy)acetyl)-2,5-dimethylphenyl)-N-cyanoformimidamide]	–	–	–	–	> 90	–
Cc1ccc(SCC(=O)c2cc(C)c(N=CN(C)C(C)C)cc2C)cc1C [Compound 47, N′-(4-(2-((3,4-dimethylphenyl)thio)acetyl)-2,5-dimethylphenyl)-N-isopropyl-N-methylformimidamide]	–	> 70	> 70	–	> 90	> 70
C=CCN(C)C=Nc1cc(C)c(C(=O)CSc2ccc(C)c(C)c2)cc1C [Compound 48, N-allyl-N′-(4-(2-((3,4-dimethylphenyl)thio)acetyl)-2,5-dimethylphenyl)-N-methylformimidamide]	–	–	–	–	> 90	–
Cc1ccc(SCC(=O)c2cc(C)c(N=CN3CCOCC3)cc2C)cc1C [Compound 49, 1-(2,5-dimethyl-4-((morpholinomethylene)amino)phenyl)-2-((3,4-dimethylphenyl)thio)ethan-1-one]	–	–	–	–	> 90	–
CCN(C)C=Nc1cc(C)c(C(=O)CSc2ccc(Cl)c(Cl)c2)cc1Cl [Compound 50, N′-(2-chloro-4-(2-((3,4-dichlorophenyl)thio)acetyl)-5-methylphenyl)-N-ethyl-N-methylformimidamide]	–	–	–	–	> 90	–
CCN(C)C=Nc1cc(C)c(C(=O)COc2ccc(C)cc2Cl)cc1C [Compound 93, N′-(4-(2-(2-chloro-4-methylphenoxy)acetyl)-2,5-dimethylphenyl)-N-ethyl-N-methylformimidamide]	> 70	> 70	> 70	> 70	–	> 70
CCN(C)C=Nc1cc(C)c(C(=O)COc2ccc(Cl)cc2Cl)cc1C [Compound 94, N′-(4-(2-(2,4-dichlorophenoxy)acetyl)-2,5-dimethylphenyl)-N-ethyl-N-methylformimidamide]	> 70	> 70	> 70	> 70	–	> 70
CCN(C)C=Nc1cc(C)c(C(=O)COc2cc(C)ccc2C)cc1C [Compound 95, N′-(4-(2-(2,5-dimethylphenoxy)acetyl)-2,5-dimethylphenyl)-N-ethyl-N-methylformimidamide]	> 70	> 70	> 70	> 70	–	> 70
CCN(C)C=Nc1cc(C)c(C(=O)COc2cc(Cl)ccc2C)cc1C [Compound 96, N′-(4-(2-(5-chloro-2-methylphenoxy)acetyl)-2,5-dimethylphenyl)-N-ethyl-N-methylformimidamide]	> 70	> 70	> 70	> 70	–	> 70
